Data: US20200316050A1, “A TOPICAL COMPOSITION BASED ON NIACINAMIDE DERIVATIVE” (Conopco, Inc., d/b/a UNILEVER, priority 2017, published 2020)

Test system: Human neonatal primary skin keratinocyte (NHEK) cells
Assay: psoriasin (AMP marker) secretion by human keratinocytes, ELISA of culture supernatant
Assay type: cell-based
Conditions: 72 hours incubation, KGM with 2 mM calcium chloride
Procedure: Step 1: Human neonatal primary skin keratinocyte (NHEK) cells was obtained from Lonza ®. The experiment was done with the above-mentioned cells with passage between 3 and 4. Then, the cells were seeded (35,000 cells/well) in 24 well plate with keratinocyte growth media (KGM) obtained from Invitrogen®. The plate was then incubated at 37±2° C. in a CO2 incubator for 48 hours.
Step 2: After 48 hours of incubation, cell differentiation was induced by replacing media with fresh KGM supplemented with 2 mM calcium chloride solution. This was then followed by incubation at 37±2° C. in a CO2 incubator for 48 hours.
Step 3: After that, the cells were treated with different concentration (as outlined table 1 below) of N-cyclopentyl nicotinamide, with keratinocyte growth media supplemented with 2mM calcium chloride solution:
Step 4: After the above treatment, cells were again incubated at 37±2° C. in a CO2 incubator for 72 hours.
Step 5: After 72 hours of incubation, cell culture supernatant from each well was collected in a sterile tube. The samples were then stored at -80° C. until used for testing psoriasin secretion by standard ELISA technique using psoriasin ELISA kit obtained from Circulx® (No: CY-8073). In the current experiment, psoriasin was used as a marker for AMP.
Step 6: The ELISA method was performed by using 100 μL of cell culture supernatant from each sample.
The data is expressed in terms of fold change over control (no treatment:
Example A). The fold change in psoriasin levels in case of control (example A) is taken to be equal to 1 fold. Any fold change in psoriasin obtained due to treatments outlined in all the other examples was over and above the 1 fold change obtained from the control.

| Compound | Fold Change in psoriasin levels over control (no treatment, Example A = 1) (200 μg/mL) | Fold Change in psoriasin levels over control (no treatment, Example A = 1) (400 μg/mL) | Fold Change in psoriasin levels over control (no treatment, Example A = 1) (500 μg/mL) |
| --- | --- | --- | --- |
| O=C(NC1CCCC1)c1cccnc1 [Example 1, N-cyclopentyl nicotinamide] | 2.06 fold | 2.84 fold |  |
| NC(=O)c1cccnc1 [B, Niacinamide] | 0.9 fold |  | 1.4 fold |
